EC50 and CC50 data for one molecule are collected here from patent US10179794B2, “Thieno[3,2-d]pyrimidine, furo[3,2-d]pyrimidine, and pyrrolo[3,2-D]pyrimidines useful for treating respiratory syncitial virus infections” (Gilead Sciences, Inc., priority 2014, dated 2019).

Some results are limits rather than exact numbers.

One series relates to RSV strain A2. The series can be described thus: Anti-RSV activity, infectious cytopathic cell protection assay in HEp-2 cells. In kind it is cell-based, Respiratory Syncytial Virus (RSV). The following applies: RSV A2-induced cytopathic effect in HEp-2 cells, 4 days, Cell TiterGlo; read-out: EC50. As to the method: Antiviral activity against RSV is determined using an infectious cytopathic cell protection assay in HEp-2 cells. In this assay, compounds inhibiting viral infection and/or replication produce a cytoprotective effect against the virus-induced cell killing that can be quantified using a cell viability reagent. The techniques used here are novel adaptations of methods described in published literature (Chapman et al., Antimicrob Agents Chemother. 2007, 51 (9):3346-53.)
HEp-2 cells are obtained from ATCC (Manassas, Va.) and maintained in MEM media supplemented with 10% fetal bovine serum and penicillin/streptomycin. Cells are passaged twice a week and kept at subconfluent stage. Commercial stock of RSV strain A2 (Advanced Biotechnologies, Columbia, Md.) is titered before compound testing to determine the appropriate dilution of the virus stock that generates desirable cytopathic effect in HEp-2 cells.
For antiviral tests, HEp-2 cells are grown in large cell culture flasks to near confluency but not fully so. The compounds to be tested are prediluted in DMSO in 384-well compound dilution plates, either in an 8 or 40 sample per plate standardized dose response format. 3-fold serial dilution increments of each test compound are prepared in the plates and test samples are transferred via acoustic transfer apparatus (Echo, Labcyte) at 100 nl per well into cell culture assay 384-well plates. Each compound dilution is transferred in single or quadruplicate samples into dry assay plates, which are stored until assay is ready to go. The positive and negative controls are laid out in opposite on ends of the plate in vertical blocks (1 column).
Subsequently, an infectious mixture is prepared using an appropriate dilution of virus stock previously determined by titration with cells at a density of 50,000/ml and 20 uL/well is added to test plates w/compounds via automation (uFlow, Biotek). Each plate includes negative and positive controls (16 replicates each) to create 0% and 100% virus inhibition standards, respectively. Following the infection with RSV, testing plates are incubated for 4 days in a 37° C. cell culture incubator. After the incubation, a cell viability reagent, Cell TiterGlo (Promega, Madison, Wis.) is added to the assay plates, which are incubated briefly, and a luminescent readout is measured (Envision, Perkin Elmer) in all the assay plates. The RSV-induced cytopathic effect, percentage inhibition, is determined from the levels of remaining cell viability. These numbers are calculated for each tested concentration relative to the 0% and 100% inhibition controls, and the EC50 value for each compound is determined by non-linear regression as a concentration inhibiting the RSV-induced cytopathic effect by 50%. Various potent anti-RSV tool compounds are used as positive controls for antiviral activity.

The next series concerns HEp-2 cells. The series can be described thus: Cytotoxicity assay in HEp-2 cells. In kind it is cell-based. The following applies: uninfected HEp-2 cells, 4 days, CellTiter Glo. As to the method: Cytotoxicity of tested compounds is determined in uninfected HEp-2 cells in parallel with the antiviral activity using the cell viability reagent in a similar fashion as described before for other cell types (Cihlar et al., Antimicrob Agents Chemother. 2008,52(2):655-65.). The same protocol as for the determination of antiviral activity is used for the measurement of compound cytotoxicity except that the cells are not infected with RSV. Instead, an uninfected cell mixture at the same density is added at 20 ul/well to plates containing prediluted compounds, also at 100 nl/sample. Assay plates are then incubated for 4 days followed by a cell viability test using the same CellTiter Glo reagent addition and measurement of luminescent readouts. Untreated cell and cells treated at 2 uM puromycin (Sigma, St. Louis, Mo.) serve as 100% and 0% cell viability control, respectively. The percent of cell viability is calculated for each tested compound concentration relative to the 0% and 100% controls and the CC50 value is determined by non-linear regression as a compound concentration reducing the cell viability by 50%.

In the next series the test system is MT-4 cells. The series can be described thus: Cytotoxicity assay in MT-4 cells. In kind it is cell-based. Particulars: 5 days, Cell-Titer Glo. As to the method: The MT-4 cell line was obtained from the NIH AIDS Research and Reference Reagent Program (Germantown, Md.) and cultured in RPMI-1640 medium (Irvine Scientific, Santa Ana, Calif., Cat #9160) supplemented with 10% FBS, 100 units/mL penicillin, 100 units/mL streptomycin, and 2 mM L-Glutamine. The MT-4 cells were passaged twice per week to maintain cell densities below 0.6×10^6 cells/mL. Complete RPMI-1640 media containing 100× concentrations of 3-fold serially diluted compound, ranging from 26 nM to 530 μM, were stamped in quadruplicate into black 384-well plates. After compound addition, 2×10^3 MT-4 cells were added to each well using a MicroFlo liquid dispenser (BioTek, Winooski, Vt.) and the cells were cultured for 5 days at 37° C. in a 5% CO2 incubator. Following the incubation the cells were allowed to equilibrate to 25° C. and cell viability was determined by adding 25 μL of Cell-Titer Glo viability reagent. The mixture was incubated for 10 minutes at 25° C., and the luminescence signal was quantified on a Victor Luminescence plate reader. The CC50 value is defined as the concentration of compound that reduces cell viability by 50% as determined by the Cell-Titer Glo signal. The data were analyzed using Pipeline Pilot Plate Data Analytics Collection software (Version 7.0, Accelrys, San Diego, Calif.). CC50 values were calculated from a non-linear regression analysis using a 4-parameter sigmoidal dose-response equation: Y=Bottom+(Top-Bottom)/(1+10^[(LogCC50-X)*HillSlope]) where the Top and Bottom were fixed at 100% and 0% cell viability, respectively. CC50 values were calculated as the average± standard deviation of 3 independent experiments.

In the case of `N#C[C@]1(CO)O[C@@H](c2csc3c(N)ncnc23)[C@H](F)[C@@H]1O` [Example 2, (2R,3R,4R,5S)-5-(4-aminothieno[3,2-D]pyrimidin-7-yl)-4-fluoro-3-hydroxy-2-(hydroxymelthyl)tetrahydrofuran-2-carbonitrile], in the series with RSV strain A2, the concentration for a half-maximal effect (EC50) worked out at 6.5 µM. The results for the 50% cytotoxic concentration (CC50) with HEp-2 cells and in the series with MT-4 cells were more than 100 µM and more than 114 µM, respectively.
